# Experimental data as given in patent US20090111847A1, “PREPARATION METHOD AND USE OF COMPOUNDS HAVING HIGH INSECTICIDAL ACTIVITIES” (priority 2006, published 2009).
# Assays:
# Aphis craccivora = assay: Insecticidal activity against Aphis craccivora by immersing (mortality after 24 hours); type: in vivo; conditions: for Mortality (%) (500 ppm) Aphis craccivora / Aphis craccivora LC50 (ppm) / Aphis craccivora Mortality (%) (100 ppm): in vivo; for mortality at 500 ppm: Aphis craccivora, 24 h, read-out: Mortality (%) (500 ppm) Aphis craccivora
# Procedure: Aphis, which belongs to Homoptera and has a piercing-sucking mouthpart, is a common insect for agricultural plant. Aphis craccivora was tested by the way of immersing.
# Test method: exactly weighed various samples were independently added to N,N-dimethylformamide to form a 10 g/L stock solution. The mixture was diluted with 0.2 mL/L aqueous Triton X-100 solution to a concentration of 500 ug/mL. After stably sucking on bean sprout, the adult aphis without wings together with bean sprout was dipped into the dilution of 500 ug/mL, 100 ug/mL, 50 ug/mL, 25 ug/mL, 12.5 ug/mL, 6.25 ug/mL (LD50 was calculated), taken out after 5 seconds, and the excess dilution was sucked out with bibulous paper and the adult aphis without wings was incubated in clean vessel at a constant temperature of 23° C. Each concentration was repeated for 3 times and the control group contained 0.2 mL/L aqueous Triton X-100 solution. The number of killed aphis was counted after 24 hours to calculate the mortality.
# Nilaparvata lugens = assay: Insecticidal activity against Nilaparvata lugens by spraying (mortality after 24 hours); type: in vivo; conditions: for Mortality (%) (500 ppm) Nilaparvata lugens: spraying 2 ml, counted after 24 hours; for mortality at 500 ppm: Nilaparvata lugens, 24 h, read-out: Mortality (%) (500 ppm) Nilaparvata lugens
# Procedure: Plant hopper, which belongs to Homoptera and has a piercing-sucking mouthpart, is a common insect for agricultural plant. Nilaparvata lugens was tested by the way of spraying.
# Test method: the compound to be tested was exactly formulated into a solution having a certain concentration and clean water was used as a blank control. Each process was repeated for 3 tumblers (3 times). 2 ml of solution was sprayed uniformly to each tumbler by a mini manual sprayer. 10 Nilaparvata lugens were introduced to every sink 6 hours before spraying. Three series of experiments were conducted. The number of killed Nilaparvata lugens was counted after 24 hours to calculate the mortality.
SMILES,Mortality (%) (500 ppm) Aphis craccivora (Aphis craccivora),Mortality (%) (500 ppm) Nilaparvata lugens (Nilaparvata lugens),Aphis craccivora LC50 (ppm) (Aphis craccivora),Aphis craccivora Mortality (%) (100 ppm) (Aphis craccivora),further results
CCOC1CC(O)N2CCN(Cc3ccc(Cl)nc3)C2=C1[N+](=O)[O-] (stereo not shown) [Compound 45],100%,89%,–,–,–
CCC1C([N+](=O)[O-])=C2N(Cc3ccc(Cl)nc3)CCN2C(O)C1C (stereo not shown) [Compound 35],100%,88%,–,–,–
CCC1CC([N+](=O)[O-])=C2N(Cc3ccc(Cl)nc3)CCN2C1OC (stereo not shown) [Compound 27],92%,80%,–,–,–
CCC1C(C)C([N+](=O)[O-])=C2N(Cc3ccc(Cl)nc3)CCN2C1O (stereo not shown) [Compound 33],92%,78%,–,–,–
CC1CC([N+](=O)[O-])=C2N(Cc3ccc(Cl)nc3)CCN2C1O (stereo not shown) [g],–,–,36.3 ppm,92%,–
"CC1C([N+](=O)[O-])=C2N(Cc3ccc(Cl)nc3)CCN2C(O)C1C (stereo not shown) [Compound 30, 1-((6-chloropyridin-3-yl)methyl)-6,7-dimethyl-8-nitro-1,2,3,5,6,7-hexahydroimidazo[1,2-a]pyridin-5-ol]",–,–,–,–,mortality at 500 ppm (Aphis craccivora): 100%; mortality at 500 ppm (Nilaparvata lugens): 100%
CC1CC(O)N2CCN(CC3CCOC3)C2=C1[N+](=O)[O-] (stereo not shown) [Compound 15],24%,35%,–,–,–
CCCC1CC(OCC)N2CCN(Cc3ccc(Cl)nc3)C2=C1[N+](=O)[O-] (stereo not shown) [Compound 25],96%,100%,–,–,–
COC1C([N+](=O)[O-])=C2N(Cc3ccc(Cl)nc3)CCN2C(O)C1C (stereo not shown) [Compound 43],100%,97%,–,–,–
CCC1C(O)N2CCN(Cc3ccc(Cl)nc3)C2=C([N+](=O)[O-])C1(C)C (stereo not shown) [Compound 37],99%,88%,–,–,–
CC(C)OC1CC(C)C([N+](=O)[O-])=C2N(Cc3ccc(Cl)nc3)CCN21 (stereo not shown) [e],–,–,20.5 ppm,100%,–
"CCCCOC1CC(C)C([N+](=O)[O-])=C2N(Cc3ccc(Cl)nc3)CCN21 (stereo not shown) [Compound 7, 5-butoxy-1-((6-chloropyridin-3-yl)methyl)-7-methyl-8-nitro-1,2,3,5,6,7-hexahydroimidazo[1,2-a]pyridine]",–,–,–,–,mortality at 500 ppm (Aphis craccivora): 80%; mortality at 500 ppm (Nilaparvata lugens): 100%
COC1CC(C)(C)C([N+](=O)[O-])=C2N(Cc3ccc(Cl)nc3)CCN21 (stereo not shown) [Compound 32],100%,100%,–,–,–
"CC1CC(O)N2CCN(Cc3ccc(Cl)nc3)C2=C1[N+](=O)[O-] (stereo not shown) [Compound 1, 1-((6-chloropyridin-3-yl)methyl)-7-methyl-8-nitro-1,2,3,5,6,7-hexahydroimidazo[1,2-a]pyridin-5-ol]",–,–,–,–,mortality at 500 ppm (Aphis craccivora): 100%; mortality at 500 ppm (Nilaparvata lugens): 100%
CCCOC1CC(C)C([N+](=O)[O-])=C2N(Cc3ccc(Cl)nc3)CCN21 (stereo not shown) [d],–,–,33.6 ppm,75.4%,–
CCOC1CC([N+](=O)[O-])=C2N(Cc3ccc(Cl)nc3)CCN2C1O (stereo not shown) [q],–,–,70.9 ppm,85%,–
"O=[N+]([O-])C1=C2N(Cc3ccc(Cl)nc3)CCN2C(O)CC1c1ccccc1 (stereo not shown) [Compound 38, 1-((6-chloropyridin-3-yl)methyl)-8-nitro-7-phenyl-1,2,3,5,6,7-hexahydroimidazo[1,2-a]pyridin-5-ol]",–,–,–,–,mortality at 500 ppm (Aphis craccivora): 24%; mortality at 500 ppm (Nilaparvata lugens): 0%
CCC1CC(O)N2CCN(Cc3ccc(Cl)nc3)C2=C1[N+](=O)[O-] (stereo not shown) [Compound 22],93%,98%,–,–,–
CCCCCOC1CC(C)C([N+](=O)[O-])=C2N(Cc3ccc(Cl)nc3)CCN21 (stereo not shown) [Compound 8],67%,80%,–,–,–
CCCOC1CC(C)C([N+](=O)[O-])=C2N(Cc3cnc(Cl)s3)CCN21 (stereo not shown) [Compound 14],100%,100%,–,–,–
"COC1CC(O)N2CCN(Cc3ccc(Cl)nc3)C2=C1[N+](=O)[O-] (stereo not shown) [Compound 42, 1-((6-chloropyridin-3-yl)methyl)-7-methoxy-8-nitro-1,2,3,5,6,7-hexahydroimidazo[1,2-a]pyridin-5-ol]",–,–,–,–,mortality at 500 ppm (Aphis craccivora): 100%; mortality at 500 ppm (Nilaparvata lugens): 97%
CCOC1CC(C)C([N+](=O)[O-])=C2N(CC3CCOC3)CCN21 (stereo not shown) [Compound 17],89%,100%,–,–,–
CC1(C)CC(O)N2CCN(Cc3ccc(Cl)nc3)C2=C1[N+](=O)[O-] (stereo not shown) [Compound 31],96%,100%,–,–,–
COC1CC(C)C([N+](=O)[O-])=C2N(CC3CCOC3)CCN21 (stereo not shown) [Compound 16],45%,67%,–,–,–

SMILES,Mortality (%) (500 ppm) Aphis craccivora (Aphis craccivora),Mortality (%) (500 ppm) Nilaparvata lugens (Nilaparvata lugens),Aphis craccivora LC50 (ppm) (Aphis craccivora),Aphis craccivora Mortality (%) (100 ppm) (Aphis craccivora),further results
CCC1CC([N+](=O)[O-])=C2N(Cc3ccc(Cl)nc3)CCN2C1O (stereo not shown) [Compound 26],100%,100%,–,–,–
C=CCOC1CC(C)C([N+](=O)[O-])=C2N(Cc3ccc(Cl)nc3)CCN21 (stereo not shown) [Compound 9],98%,100%,–,–,–
COC1CC(O)N2CCN(Cc3cnc(Cl)s3)C2=C1[N+](=O)[O-] (stereo not shown) [Compound 44],100%,97%,–,–,–
CCOC1CC(C)C([N+](=O)[O-])=C2N(Cc3cnc(Cl)s3)CCN21 (stereo not shown) [Compound 13],98%,100%,–,–,–
CCCCC1CC(O)N2CCN(Cc3ccc(Cl)nc3)C2=C1[N+](=O)[O-] (stereo not shown) [Compound 41],72%,50%,–,–,–
"CC1CC(O)N2CCN(Cc3cnc(Cl)s3)C2=C1[N+](=O)[O-] (stereo not shown) [Compound 12, 1-((2-chlorothiazol-5-yl)methyl)-7-methyl-8-nitro-1,2,3,5,6,7-hexahydroimidazo[1,2-a]pyridin-5-ol]",–,–,–,–,mortality at 500 ppm (Aphis craccivora): 100%; mortality at 500 ppm (Nilaparvata lugens): 100%
C#CCOC1CC(C)C([N+](=O)[O-])=C2N(Cc3ccc(Cl)nc3)CCN21 (stereo not shown) [Compound 10],43%,67%,–,–,–
CCCC1CC(O)N2CCN(Cc3ccc(Cl)nc3)C2=C1[N+](=O)[O-] (stereo not shown) [i],–,–,75.2 ppm,77%,–
"CC(=O)OC1CC(C)C([N+](=O)[O-])=C2N(Cc3ccc(Cl)nc3)CCN21 (stereo not shown) [Compound 11, 1-((6-chloropyridin-3-yl)methyl)-7-methyl-8-nitro-1,2,3,5,6,7-hexahydroimidazo[1,2-a]pyridin-5-yl acetate]",–,–,–,–,mortality at 500 ppm (Aphis craccivora): 93%; mortality at 500 ppm (Nilaparvata lugens): 100%
COC1CC([N+](=O)[O-])=C2N(Cc3cnc(Cl)s3)CCN2C1O (stereo not shown) [Compound 48],85%,90%,–,–,–
CC1C([N+](=O)[O-])=C2N(Cc3ccc(Cl)nc3)CCN2C(O)C1C (stereo not shown) [l],–,–,86.4 ppm,66.7%,–
"COC1CC(C)C([N+](=O)[O-])=C2N(Cc3ccc(Cl)nc3)CCN21 (stereo not shown) [Compound 2, 1-((6-chloropyridin-3-yl)methyl)-5-methoxy-7-methyl-8-nitro-1,2,3,5,6,7-hexahydroimidazo[1,2-a]pyridine]",–,–,–,–,mortality at 500 ppm (Aphis craccivora): 98%; mortality at 500 ppm (Nilaparvata lugens): 100%
COC1C(C)C([N+](=O)[O-])=C2N(Cc3ccc(Cl)nc3)CCN2C1O (stereo not shown) [Compound 49],100%,100%,–,–,–
CC1CC(O)N2CCN(Cc3ccc(Cl)nc3)C2=C1[N+](=O)[O-] (stereo not shown) [a],–,–,31.5 ppm,95.3%,–
COC1CC(C)C([N+](=O)[O-])=C2N(Cc3ccc(Cl)nc3)CCN21 (stereo not shown) [b],–,–,50.8 ppm,84%,–
CCC1C([N+](=O)[O-])=C2N(Cc3ccc(Cl)nc3)CCN2C(O)C1C (stereo not shown) [m],–,–,75.9 ppm,87%,–
CC1CC(O)N2CCN(Cc3cnc(Cl)s3)C2=C1[N+](=O)[O-] (stereo not shown) [f],–,–,68 ppm,87%,–
CCC1CC([N+](=O)[O-])=C2N(Cc3ccc(Cl)nc3)CCN2C1O (stereo not shown) [j],–,–,57.3 ppm,93.6%,–
CCC1CC([N+](=O)[O-])=C2N(Cc3ccc(Cl)nc3)CCN2C1OC (stereo not shown) [k],–,–,83.0 ppm,92%,–
CCOC1CC(O)N2CCN(Cc3ccc(Cl)nc3)C2=C1[N+](=O)[O-] (stereo not shown) [o],–,–,66.4 ppm,82%,–
CCOC1CC(C)C([N+](=O)[O-])=C2N(Cc3ccc(Cl)nc3)CCN21 (stereo not shown) [c],–,–,65.4 ppm,67%,–
COC1CC([N+](=O)[O-])=C2N(Cc3ccc(Cl)nc3)CCN2C1O (stereo not shown) [p],–,–,47.6 ppm,93%,–
COC1CC(O)N2CCN(Cc3ccc(Cl)nc3)C2=C1[N+](=O)[O-] (stereo not shown) [n],–,–,40.5 ppm,96%,–
